Measurements from ChEMBL document CHEMBL1152491, “Synthesis and evaluation of antibacterial activities of andrographolide analogues” (2009).
Activity calls are given as the source filed them. The calls are words filed in the database; no cut-off is given here.

Key:
[1] = system: Pseudomonas aeruginosa; experiment: Growth inhibition of Pseudomonas aeruginosa PAO1 assessed as survival rate at 0.017 ug/mL after 20 hrs; format: functional; details: PAO1, 20 h
[2] = system: Pseudomonas aeruginosa PAO1; experiment: Inhibition of Pseudomonas aeruginosa PAO1 quorum sensing assessed as suppression of protease production at 0.1 mM after 18 hrs by azocasein-based colorimetric method
[3] = system: Pseudomonas aeruginosa PAO1; experiment: Inhibition of Pseudomonas aeruginosa PAO1 quorum sensing assessed as inhibition of pycocyanin production at 10 mM after 18 hrs
[4] = system: Bacillus subtilis; experiment: Antibacterial activity against Bacillus subtilis at 0.05 mg/disk after 25 hrs; format: functional
[5] = system: Pseudomonas aeruginosa; experiment: Growth inhibition of Pseudomonas aeruginosa PAO1 at 10 mM after 25 hrs; format: functional, organism-based
[6] = system: Pseudomonas aeruginosa PAO1; experiment: Inhibition of Pseudomonas aeruginosa PAO1 quorum sensing assessed as suppression of protease production at 10 mM after 18 hrs by azocasein-based colorimetric method
[7] = system: Candida albicans; experiment: Antifungal activity against Candida albicans at 0.05 mg/disk after 25 hrs; format: functional, organism-based
[8] = system: Escherichia coli; experiment: Antibacterial activity against Escherichia coli at 0.05 mg/disk after 25 hrs; format: functional
[9] = system: Pseudomonas aeruginosa; experiment: Antibacterial activity against Pseudomonas aeruginosa at 0.05 mg/disk after 25 hrs; format: functional
[10] = system: Staphylococcus aureus; experiment: Antibacterial activity against Staphylococcus aureus at 0.05 mg/disk after 25 hrs; format: functional
[11] = system: Pseudomonas aeruginosa; experiment: Inhibition of Pseudomonas aeruginosa PAO1 quorum sensing assessed as inhibition of pycocyanin production at 0.1 mM after 18 hrs; format: functional, organism-based
[12] = system: Staphylococcus aureus; experiment: Antibacterial activity against methicillin-resistant Staphylococcus aureus 5676 at 0.05 mg/disk after 25 hrs; format: functional
[13] = system: Pseudomonas aeruginosa; experiment: Inhibition of Pseudomonas aeruginosa PAO1 biofilm formation cultivated on respiratory tack suction tube at 1 mM after 7 days by scanning electron microscopy; format: functional, organism-based
[14] = system: Pseudomonas aeruginosa; experiment: Growth inhibition of Pseudomonas aeruginosa PAO1 at 1 mM after 25 hrs; format: functional, organism-based
[15] = system: Pseudomonas aeruginosa; experiment: Growth inhibition of Pseudomonas aeruginosa PAO1 assessed as population density at 1 mM after 15 hrs by atomic force microscopy; format: functional, organism-based
[16] = system: Pseudomonas aeruginosa; experiment: Growth inhibition of Pseudomonas aeruginosa PAO1 assessed as survival rate at 538 ug/mL after 20 hrs; format: functional; details: PAO1, 20 h
[17] = system: Pseudomonas aeruginosa PAO1; experiment: Inhibition of Pseudomonas aeruginosa PAO1 quorum sensing assessed as inhibition of pycocyanin production at 1 mM after 18 hrs
[18] = system: Staphylococcus aureus; experiment: Antibacterial activity against methicillin-resistant Staphylococcus aureus 5677 at 0.05 mg/disk after 25 hrs; format: functional
[19] = system: Pseudomonas aeruginosa; experiment: Inhibition of Pseudomonas aeruginosa PAO1 biofilm formation cultivated on respiratory tack suction tube at 1 mM after 3 days by scanning electron microscopy; format: functional, organism-based
[20] = system: Pseudomonas aeruginosa PAO1; experiment: Inhibition of Pseudomonas aeruginosa PAO1 quorum sensing assessed as suppression of protease production at 1 mM after 18 hrs by azocasein-based colorimetric method
[21] = system: Pseudomonas aeruginosa; experiment: Growth inhibition of Pseudomonas aeruginosa PAO1 assessed as survival rate at 3.75 ug/mL after 20 hrs; format: functional; details: PAO1, 20 h

SMILES | Activity [2] | diameter of the inhibition zone (DIZ) [4] [mm] | Activity [7] | diameter of the inhibition zone (DIZ) [8] [mm] | diameter of the inhibition zone (DIZ) [9] [mm] | diameter of the inhibition zone (DIZ) [10] [mm] | Activity [11] | diameter of the inhibition zone (DIZ) [12] [mm] | Activity [13] | Activity [14] | Activity [15] | Activity [17] | diameter of the inhibition zone (DIZ) [18] [mm] | Activity [19] | Activity [20] | also measured
O=C(O)c1cn(C2CC2)c2cc(N3CCNCC3)c(F)cc2c1=O [CIPROFLOXACIN] |  |  |  |  |  |  |  |  |  |  |  |  |  |  |  | survival at 0.017 µg/mL [1]: 85%
C=C1CC[C@@H]2[C@](C)(CO)[C@H](O)CC[C@@]2(C)[C@@H]1CC(C1=CCOC1=O)S(=O)(=O)[O-].[Na+] (stereo not given in full) | Active | <4 | inactive | <4 | <4 | <4 | inactive |  |  |  |  |  |  |  |  | Activity [3]: Active; Activity [5]: inactive; Activity [6]: Active
C=C1CC[C@@H]2[C@](C)(CO)[C@H](O)CC[C@@]2(C)[C@@H]1C/C=C1/C(=O)OC[C@H]1OC(=O)CCCCC1CCSS1 (stereo not given in full) | Active | <4 | inactive | <4 | <4 | 4.9 | Active | 6.9 | Active | Active | Active | Active | 4.1 | Active | Active | survival at 538 µg/mL [16]: 84%
C=C1CC[C@@H]2[C@](C)(CO)[C@H](O)CC[C@@]2(C)[C@@H]1C/C=C1/C(=O)OC[C@H]1O [ANDROGRAPHOLIDE] | Active | <4 |  | <4 | <4 | <4 |  |  | inactive | Active | inactive |  |  | inactive | Active | 
C=C1CC[C@@H]2[C@](C)(CO)[C@H](O)CC[C@@]2(C)[C@@H]1C/C=C1/C(=O)OC[C@H]1OC(=O)CNC(=O)OC(C)(C)C | Active | <4 | inactive | <4 | <4 | 10.2 | Active | 8.4 |  |  |  | Active | 7.6 |  | Active | 
C=C1CC[C@@H]2[C@](C)(CO)[C@H](O)CC[C@@]2(C)[C@@H]1C/C=C1/C(=O)OC[C@H]1OC(=O)CN.Cl | Active | <4 | inactive | <4 | <4 | 9.3 | Active | 8.7 | inactive | Active | Active | Active | 5.2 | inactive | Active | 
C=C1CC[C@@H]2[C@](C)(CO)[C@H](O)CC[C@@]2(C)[C@@H]1C/C=C1/C(=O)OC[C@H]1OC(=O)/C=C/c1ccc([N+](=O)[O-])cc1 | Active | <4 | inactive | <4 | <4 | 8.3 | Active | 8.1 |  |  |  | Active | 6.4 |  | Active | 
CC[C@H]1OC(=O)[C@H](C)[C@@H](O[C@H]2C[C@@](C)(OC)[C@@H](O)[C@H](C)O2)[C@H](C)[C@@H](O[C@@H]2O[C@H](C)C[C@H](N(C)C)[C@H]2O)[C@](C)(O)C[C@@H](C)C(=O)[C@H](C)[C@@H](O)[C@]1(C)O [ERYTHROMYCIN] |  |  |  |  |  |  |  |  |  |  |  |  |  |  |  | survival at 3.75 µg/mL [21]: 93.5%
